One assay addresses T1, p38alpha (Homo sapiens, UniProt Q16539).
T1 construct: purchased Invitrogen PV3304
The assay is described as follows: P38Alpha enzyme inhibition assay (Alphascreen kinase activity assay). As to conditions: 100 pM p38alpha, 250 μM ATP, 2 hours pre-incubation at 25° C., read-out: p38α inhibition (IC50 values). The class given is biochemical. In short, it runs like this:
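AlphaScreen read-out: after an EDTA stop, an anti-phospho-ATF2 antibody with Protein A acceptor and donor beads measured substrate phosphorylation. Compounds sat 2 h at 25°C with 100 pM p38α and 0.3 µg/ml ATF-2 fusion protein (pH 7.5, 1% DMSO) before 250 µM ATP was added for 1 h. IC50 from dose-response.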

In assay [1] the test system is LPS-stimulated TNFα release from PBMCs. The assay is described as follows: LPS-stimulated PBMC TNFα release assay. The class given is cell-based. To be noted: inhibition of TNFα release, human PBMCs, LPS 10 ng/ml, 18 h, ELISA, read-out: p38α inhibition (IC50 values). Put shortly: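 TNFα in supernatants measured by ELISA after 18 h LPS (10 ng/ml) challenge of human PBMCs given 1 h compound pretreatment at 37 °C in medium with 1% FBS. Percent inhibition versus control release fitted to dose-response curves for IC50; at least three independent runs.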
A general note: ELISA stands for enzyme-linked immunosorbent assay.

Drawing on patent US9315503B2, “Kinase inhibitors” (CHIESI FARMACEUTICI S.p.A., priority 2011, dated 2016), this text covers IC50 for 18 compounds.

Structures can show the parent of a compound that is named as a salt.

T1 sequence (Q16539 whole entry): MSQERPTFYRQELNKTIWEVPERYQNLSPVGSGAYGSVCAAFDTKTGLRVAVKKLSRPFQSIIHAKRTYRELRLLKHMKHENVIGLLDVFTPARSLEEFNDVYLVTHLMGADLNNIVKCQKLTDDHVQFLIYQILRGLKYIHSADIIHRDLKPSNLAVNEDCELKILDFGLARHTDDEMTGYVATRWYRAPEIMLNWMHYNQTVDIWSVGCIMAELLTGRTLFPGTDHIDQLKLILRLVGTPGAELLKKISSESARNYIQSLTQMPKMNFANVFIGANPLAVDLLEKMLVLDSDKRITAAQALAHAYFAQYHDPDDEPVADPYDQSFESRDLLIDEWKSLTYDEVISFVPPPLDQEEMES

By IC50 is commonly meant the concentration that inhibits the measured activity by half. Consider `Cc1ccc(-n2nc(C(C)(C)C)cc2NC(=O)N[C@H]2CC[C@@H](Oc3cc(C)c4nnc([C@@H]5CCCN5C)n4c3)c3ccccc32)cc1` [Example 105, 1-(5-tert-Butyl-2-p-tolyl-2H-pyrazol-3-yl)-3-{(1S,4R)-4-[8-methyl-3-((S)-1-methyl-pyrrolidin-2-yl)-[1,2,4]triazolo[4,3-a]pyridin-6-yloxy]-1,2,3,4-tetrahydro-naphthalen-1-yl}-urea], for which the IC50 (at p38alpha; in assay [1]) was < 10 nM in each case.
Regarding `CN1CCN(Cc2ccc(-n3nc(C(C)(C)C)cc3NC(=O)N[C@H]3CC[C@@H](Oc4ccc5nnc(N6CCCCC6)n5c4)c4ccccc43)cc2)CC1` [Example 106, 1-{5-tert-Butyl-2-[4-(4-methyl-piperazin-1-ylmethyl)-phenyl]-2H-pyrazol-3-yl}-3-[(1S,4R)-4-(3-piperidin-1-yl-[1,2,4]triazolo[4,3-a]pyridin-6-yloxy)-1,2,3,4-tetrahydro-naphthalen-1-yl]-urea], the IC50 (on p38alpha; in assay [1]) was < 10 nM each time.
Consider `Cn1cc(-n2nc(C(C)(C)C)cc2NC(=O)N[C@H]2CC[C@@H](Oc3ccc4nnc(N5CCCCC5)n4c3)c3ccccc32)cn1` [Example 107, 1-(3-tert-Butyl-1′-methyl-1′H-[1,4′]bipyrazolyl-5-yl)-3-[(1S,4R)-4-(3-piperidin-1-yl-[1,2,4]triazolo[4,3-a]pyridin-6-yloxy)-1,2,3,4-tetrahydro-naphthalen-1-yl]-urea], for which the IC50 (on p38alpha; in assay [1]) was < 10 nM throughout.
For `CN(C)CCn1cc(-n2nc(C(C)(C)C)cc2NC(=O)N[C@H]2CC[C@@H](Oc3ccc4nnc(N5CCCCC5)n4c3)c3ccccc32)cn1` [Example 108, 1-[3-tert-Butyl-1′-(2-dimethylamino-ethyl)-1′H-[1,4′]bipyrazolyl-5-yl]-3-[(1S,4R)-4-(3-piperidin-1-yl-[1,2,4]triazolo[4,3-a]pyridin-6-yloxy)-1,2,3,4-tetrahydro-naphthalen-1-yl]-urea], the IC50 (on p38alpha; in assay [1]) was < 10 nM in each case.
Regarding `COc1c(NC(=O)N[C@H]2CC[C@@H](Oc3ccc4nnc([C@@H]5CCCN5C)n4c3)c3ccccc32)cc(C(C)(C)C)cc1NS(C)(=O)=O` [Example 109, N-[5-tert-Butyl-2-methoxy-3-(3-{(1S,4R)-4-[3-((S)-1-methyl-pyrrolidin-2-yl)-[1,2,4]triazolo[4,3-a]pyridin-6-yloxy]-1,2,3,4-tetrahydro-naphthalen-1-yl}-ureido)-phenyl]-methanesulfonamide formate salt], the IC50 (at p38alpha; in assay [1]) was < 10 nM throughout.
In the case of `C[C@H]1CCCCN1c1nnc2ccc(O[C@@H]3CC[C@H](NC(=O)Nc4cc(C(C)(C)C)nn4CCO)c4ccccc43)cn12` [Example 110, 1-[5-tert-Butyl-2-(2-hydroxy-ethyl)-2H-pyrazol-3-yl]-3-{(1S,4R)-4-[3-((S)-2-methyl-piperidin-1-yl)-[1,2,4]triazolo[4,3-a]pyridin-6-yloxy]-1,2,3,4-tetrahydro-naphthalen-1-yl}-urea], the IC50 (on p38alpha; in assay [1]) was < 10 nM each time.
For `C[C@H]1CCCCN1c1nnc2ccc(O[C@@H]3CC[C@H](NC(=O)Nc4cc(C(C)(C)C)on4)c4ccccc43)cn12` [Example 111, 1-(5-tert-Butyl-isoxazol-3-yl)-3-{(1S,4R)-4-[3-((S)-2-methyl-piperidin-1-yl)-[1,2,4]triazolo[4,3-a]pyridin-6-yloxy]-1,2,3,4-tetrahydro-naphthalen-1-yl}-urea], the IC50 (at p38alpha; in assay [1]) was < 10 nM in each case.
Regarding `CC(C)(C)c1cc(NC(=O)N[C@H]2CC[C@@H](Oc3ccc4nnc(N5CCCCC5)n4c3)c3ccccc32)n(-c2cnn(CCN3CCOCC3)c2)n1` [Example 112, 1-[3-tert-Butyl-1′-(2-morpholin-4-yl-ethyl)-1′H-[1,4′]bipyrazolyl-5-yl]-3-[(1S,4R)-4-(3-piperidin-1-yl-[1,2,4]triazolo[4,3-a]pyridin-6-yloxy)-1,2,3,4-tetrahydro-naphthalen-1-yl]-urea formate salt], the IC50 (on p38alpha; in assay [1]) was < 10 nM throughout.
For the compound `CN(C)CCCn1cc(-n2nc(C(C)(C)C)cc2NC(=O)N[C@H]2CC[C@@H](Oc3ccc4nnc(N5CCCCC5)n4c3)c3ccccc32)cn1` [Example 113, 1-[3-tert-Butyl-1′-(3-dimethylamino-propyl)-1′H-[1,4′]bipyrazolyl-5-yl]-3-[(1S,4R)-4-(3-piperidin-1-yl-[1,2,4]triazolo[4,3-a]pyridin-6-yloxy)-1,2,3,4-tetrahydro-naphthalen-1-yl]-urea formate salt], the IC50 (at p38alpha; in assay [1]) was < 10 nM in each case.
With `CC(C)(C)c1cc(NC(=O)N[C@H]2CC[C@@H](Oc3ccc4nnc(N5CCCCC5)n4c3)c3ccccc32)n(-c2cnn(CCCN3CCOCC3)c2)n1` [Example 114, 1-[3-tert-Butyl-1′-(3-morpholin-4-yl-propyl)-1′H-[1,4′]bipyrazolyl-5-yl]-3-[(1S,4R)-4-(3-piperidin-1-yl-[1,2,4]triazolo[4,3-a]pyridin-6-yloxy)-1,2,3,4-tetrahydro-naphthalen-1-yl]-urea formate salt], the IC50 (on p38alpha; in assay [1]) was < 10 nM each time.
For the compound `C[C@@H]1CCC[C@H](C)N1c1nnc2ccc(O[C@@H]3CC[C@H](NC(=O)Nc4cc(F)cc(N5CCOCC5)c4)c4ccccc43)cn12` [Example 115, 1-{(1S,4R)-4-[3-((2S,6R)-2,6-Dimethyl-piperidin-1-yl)-[1,2,4]triazolo[4,3-a]pyridin-6-yloxy]-1,2,3,4-tetrahydro-naphthalen-1-yl}-3-(3-fluoro-5-morpholin-4-yl-phenyl)-urea], the 50% inhibitory concentration (IC50) (on p38alpha; in assay [1]) was < 10 nM in each case.
For the compound `C[C@H]1CCCCN1c1nnc2ccc(O[C@@H]3CC[C@H](NC(=O)Nc4cc(C(C)(C)C)nn4CCN4CCOCC4)c4ccccc43)cn12` [Example 116, 1-[5-tert-Butyl-2-(2-morpholin-4-yl-ethyl)-2H-pyrazol-3-yl]-3-{(1S,4R)-4-[3-((S)-2-methyl-piperidin-1-yl)-[1,2,4]triazolo[4,3-a]pyridin-6-yloxy]-1,2,3,4-tetrahydro-naphthalen-1-yl}-urea], the IC50 (at p38alpha; in assay [1]) was < 10 nM in each case.
For the compound `C[C@@H]1CCC[C@H](C)N1c1nnc2ccc(O[C@@H]3CC[C@H](NC(=O)Nc4cc(C(C)(C)C)nn4CCO)c4ccccc43)cn12` [Example 118, 1-[5-tert-Butyl-2-(2-hydroxy-ethyl)-2H-pyrazol-3-yl]-3-{(1S,4R)-4-[3-((2S,6R)-2,6-dimethyl-piperidin-1-yl)-[1,2,4]triazolo[4,3-a]pyridin-6-yloxy]-1,2,3,4-tetrahydro-naphthalen-1-yl}-urea], the IC50 (on p38alpha; in assay [1]) was < 10 nM in each case.
On to `CN(C)CCn1cnc(-n2nc(C(C)(C)C)cc2NC(=O)N[C@H]2CC[C@@H](Oc3ccc4nnc(N5CCCCC5)n4c3)c3ccccc32)c1` [Example 119, 1-{5-tert-Butyl-2-[1-(2-dimethylamino-ethyl)-1H-imidazol-4-yl]-2H-pyrazol-3-yl}-3-[(1S,4R)-4-(3-piperidin-1-yl-[1,2,4]triazolo[4,3-a]pyridin-6-yloxy)-1,2,3,4-tetrahydro-naphthalen-1-yl]-urea], for which the figures for the 50% inhibitory concentration (IC50) (on p38alpha; in assay [1]) were < 10 nM and 10 to 100 nM, respectively.
On the same counts, the results for `CN1CCCC[C@H]1c1nnc2ccc(O[C@@H]3CC[C@H](NC(=O)Nc4cc(C(C)(C)C)nn4CCO)c4ccccc43)cn12` [Example 120, 1-[5-tert-Butyl-2-(2-hydroxy-ethyl)-2H-pyrazol-3-yl]-3-{(1S,4R)-4-[3-((S)-1-methyl-piperidin-2-yl)-[1,2,4]triazolo[4,3-a]pyridin-6-yloxy]-1,2,3,4-tetrahydro-naphthalen-1-yl}-urea] are < 10 nM and < 10 nM.
For `C[C@@H]1CCC[C@H](C)N1c1nnc2ccc(O[C@@H]3CC[C@H](NC(=O)Nc4cc(C(C)(C)C)nn4CCN4CCOCC4)c4ccccc43)cn12` [Example 121, 1-[5-tert-Butyl-2-(2-morpholin-4-yl-ethyl)-2H-pyrazol-3-yl]-3-{(1S,4R)-4-[3-((2S,6R)-2,6-dimethyl-piperidin-1-yl)-[1,2,4]triazolo[4,3-a]pyridin-6-yloxy]-1,2,3,4-tetrahydro-naphthalen-1-yl}-urea], the 50% inhibitory concentration (IC50) (on p38alpha; in assay [1]) was < 10 nM each time.
`CN(C)CCOc1cccc(-n2nc(C(C)(C)C)cc2NC(=O)N[C@H]2CC[C@@H](Oc3ccc4nnc(N5C6CCCC5CC6)n4c3)c3ccccc32)c1` [Example 122, 1-{(1S,4R)-4-[3-(8-Aza-bicyclo[3.2.1]oct-8-yl)-[1,2,4]triazolo[4,3-a]pyridin-6-yloxy]-1,2,3,4-tetrahydro-naphthalen-1-yl}-3-{5-tert-butyl-2-[3-(2-dimethylamino-ethoxy)-phenyl]-2H-pyrazol-3-yl}-urea formate salt]: the IC50 (at p38alpha; in assay [1]) was < 10 nM each time.
For the compound `C[C@@H]1CCCCN1c1nnc2ccc(O[C@@H]3CC[C@H](NC(=O)Nc4cc(C(C)(C)C)nn4-c4cccc(OCCN(C)C)c4)c4ccccc43)cn12` [Example 123, 1-{5-tert-Butyl-2-[3-(2-dimethylamino-ethoxy)-phenyl]-2H-pyrazol-3-yl}-3-{(1S,4R)-4-[3-((R)-2-methyl-piperidin-1-yl)-[1,2,4]triazolo[4,3-a]pyridin-6-yloxy]-1,2,3,4-tetrahydro-naphthalen-1-yl}-urea partial formate salt], the half-maximal inhibitory concentration (IC50) (at p38alpha; in assay [1]) was < 10 nM each time.
